Test results from paper PMC5372089, “Synthesis and biological evaluation of novel ursolic acid analogues as potential α-glucosidase inhibitors” (Scientific Reports, 2017).

target: T1, α-glucosidase from baker's yeast (Saccharomyces cerevisiae, UniProt P53341); test: In vitro α-glucosidase inhibition assay (PNPG substrate, absorbance at 405 nm); type: biochemical; conditions: not given
Procedure: In this assay, α-glucosidase from baker’s yeast has been selected and used in this model according to the procedure described in the previous study with a slight modification. The activity of α-glucosidase was determined by monitoring p-nitrophenol (PNP) released from p-nitrophenol-α-D-glycopyranoside (PNPG) at 405 nm. All examined samples of UA analogues were dissolved in DMSO to generate the stock solution, with the concentrations ranging from 5 μM to 4000 μM. During the enzyme inhibitory assay, each sample’s stock solution was diluted with 0.1 M phosphate buffer solution (pH = 6.8), and the final concentration of enzyme solution was 0.1 U/mL. Then 10 min pre-incubation at 37 °C was conducted. After that, the substrate (PNPG, 1 mmol/L) was added to initiate the reaction. The reaction was incubated for 30 min at 37 °C before it was terminated by adding 1 mol/L Na2CO3 solution, and the optical density value was measured at 405 nm by using a Multimodel Plate Reader (Infinite 200). Each assay was performed three times.
The enzyme activity was measured at a fixed substrate concentration, in which a series of sample concentrations were introduced. The IC50 value was […] relative to a control assay with no inhibitor added.
The α-glucosidase inhibition assay was performed according to the method of Worawalai[32] with a slight modification. The α-glucosidase enzyme (0.1 U/mL) and substrate (1 mM p-nitrophenyl-α-D-glucopyranoside) were dissolved in 0.1 M phosphate buffer, pH 6.8. 10 μL of each synthesized analogue (1 mg/mL in DMSO) was pre-incubated with 8 μL of α-glucosidase at 37 °C for 10 min. A 100 μL of substrate solution was then added to the reaction mixture, which was further incubated at 37 °C for 30 min. Then, the reaction was terminated by adding 100 μL of 1 M Na2CO3 solution. Enzymatic activity was quantified by measuring the absorbance at 405 nm with a use of a Multimodel Plate Reader (Infinite 200). The percentage of inhibition was calculated by using [(A0 − A1)/A0] × 100%, where A0 was the absorbance without the sample, and A1 was the absorbance with the sample. The IC50 value was determined from a plot of the percentage of inhibition versus the sample concentration.

T1 sequence (P53341 whole entry): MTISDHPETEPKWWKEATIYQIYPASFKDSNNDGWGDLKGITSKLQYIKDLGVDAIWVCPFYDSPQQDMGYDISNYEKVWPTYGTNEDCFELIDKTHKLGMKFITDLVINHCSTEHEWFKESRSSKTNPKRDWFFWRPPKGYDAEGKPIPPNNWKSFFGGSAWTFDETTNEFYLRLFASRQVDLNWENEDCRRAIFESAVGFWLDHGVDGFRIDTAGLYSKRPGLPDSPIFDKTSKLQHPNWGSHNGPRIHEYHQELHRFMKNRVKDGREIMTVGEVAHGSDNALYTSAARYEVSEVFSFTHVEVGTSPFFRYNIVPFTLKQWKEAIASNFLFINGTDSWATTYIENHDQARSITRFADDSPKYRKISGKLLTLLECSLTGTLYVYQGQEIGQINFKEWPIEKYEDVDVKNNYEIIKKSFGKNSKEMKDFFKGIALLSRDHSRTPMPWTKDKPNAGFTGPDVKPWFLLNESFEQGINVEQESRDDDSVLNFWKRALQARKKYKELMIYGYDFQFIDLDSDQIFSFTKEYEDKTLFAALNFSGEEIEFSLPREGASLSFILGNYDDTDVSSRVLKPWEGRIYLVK

Compound | IC50 [µM]
C[C@@H]1CC[C@]2(C(=O)O)CC[C@]3(C)C(=CCC4[C@@]5(C)CC[C@H](O)C(C)(C)C5CC[C@]43C)C2[C@H]1C (stereo partly drawn) [UA, (1S,2R,4aS,6aS,6bR,10S,12aR) -10-hydroxy-1,2,6a,6b,9,9,12a-heptamethyl-1,2,3,4,4a,5,6,6a,6b,7,8,8a,9,10,11,12,12a,12b,13,14b-icosahydropicene-4a-carboxylic acid, reference compound] | 5.08 ± 0.7
C[C@@H]1CC[C@]2(C(=O)O)CC[C@]3(C)C(=CCC4[C@@]5(C)CC[C@H](OC(=O)C(Cl)Cl)C(C)(C)C5CC[C@]43C)C2[C@H]1C (stereo partly drawn) [UA-03] | 6.72 ± 0.33
C[C@@H]1CC[C@]2(C(=O)O)CC[C@]3(C)C(=CCC4[C@@]5(C)CC[C@H](OC(=O)c6ccccc6)C(C)(C)C5CC[C@]43C)C2[C@H]1C (stereo partly drawn) [UA-01] | 4.98 ± 0.21
C[C@@H]1CC[C@]2(C(=O)O)CC[C@]3(C)C(=CCC4[C@@]5(C)CC[C@H](OC(=O)c6ccc(Br)cc6F)C(C)(C)C5CC[C@]43C)C2[C@H]1C (stereo partly drawn) [UA-04] | 3.94 ± 0.1
C[C@@H]1CC[C@]2(C(=O)O)CC[C@]3(C)C(=CCC4[C@@]5(C)CC[C@H](OC(=O)c6ccco6)C(C)(C)C5CC[C@]43C)C2[C@H]1C (stereo partly drawn) [UA-02] | 2.51 ± 0.02

same assay, conditions: UA ester derivatives (Table 1); enzyme 0.1 U/mL, PNPG 1 mM, pH 6.8, 37 °C; mean ± SD; read-out: IC50

IC50 [µM] | Compound
15.2 ± 0.47 | (1S,2R,4R,6aS,6bR,10S,12aR)-1,2,6a,6b,9,9,12a-heptamethyl-10-((4-methylpiperazine-1-carbonyl) oxy)-1,2,3,4,4a,5,6,6a,6b,7,8,8a,9,10,11,12,12a,12b,13,14b-icosahydropicene-4-carboxylic acid [UA-05]

same assay, conditions: UA-O and analogues UA-O-a~UA-O-j (Table 2); enzyme 0.1 U/mL, PNPG 1 mM, pH 6.8, 37 °C; mean ± SD; read-out: IC50

Compound | IC50 [µM]
(1S,2R,4R,6aS,6bR,12aR)-1,2,6a,6b,9,9,12a-heptamethyl-10-oxo-11-((Z)-4-(trifluoromethyl) benzylidene)-1,2,3,4,4a,5,6,6a,6b,7,8,8a,9,10,11,12,12a,12b,13,14b-icosahydropicene-4-carboxylic acid [UA-O-i] | 0.71 ± 0.04
(1S,2R,4R,6aS,6bR,12aR,Z)-1,2,6a,6b,9,9,12a-heptamethyl-10-oxo-11-(pyrazin-2-ylmethylene)-1,2,3,4,4a,5,6,6a,6b,7,8,8a,9,10,11,12,12a,12b,13,14b-icosahydropicene-4-carboxylic acid [UA-O-g] | 7.87 ± 0.34
C[C@@H]1CC[C@]2(C(=O)O)CC[C@]3(C)C(=CCC4[C@@]5(C)CCC(=O)C(C)(C)C5CC[C@]43C)C2[C@H]1C (stereo partly drawn) [UA-O] | 2.47 ± 0.14

The remaining lines, values ahead:

IC50 [µM] | Compound
1.17 ± 0.09 | (1S,2R,4R,6aS,6bR,12aR)-11-((Z)-benzylidene)-1,2,6a,6b,9,9,12a-heptamethyl-10-oxo-1,2,3,4,4a,5,6,6a,6b,7,8,8a,9,10,11,12,12a,12b,13,14b-icosahydropicene-4-carboxylic acid [UA-O-a]
3.32 ± 0.17 | (1S,2R,4R,6aS,6bR,12aR,Z)-1,2,6a,6b,9,9,12a-heptamethyl-10-oxo-11-(thiazol-2-ylmethylene)-1,2,3,4,4a,5,6,6a,6b,7,8,8a,9,10,11,12,12a,12b,13,14b-icosahydropicene-4-carboxylic acid [UA-O-h]
1.27 ± 0.2 | (1S,2R,4R,6aS,6bR,12aR)-1,2,6a,6b,9,9,12a-heptamethyl-11-((Z)-4-methylbenzylidene)-10-oxo-1,2,3,4,4a,5,6,6a,6b,7,8,8a,9,10,11,12,12a,12b,13,14b-icosahydropicene-4-carboxylic acid [UA-O-j]
10.3 ± 0.55 | (1S,2R,4R,6aS,6bR,12aR,Z)-1,2,6a,6b,9,9,12a-heptamethyl-10-oxo-11-((E) -3-phenylallylidene)-1,2,3,4,4a,5,6,6a,6b,7,8,8a,9,10,11,12,12a,12b,13,14b-icosahydropicene-4-carboxylic acid [UA-O-b]
7.49 ± 0.29 | (1S,2R,4R,6aS,6bR,12aR,Z)-11-((E)-3-(4-fluorophenyl) allylidene)-1,2,6a,6b,9,9,12a-heptamethyl-10-oxo-1,2,3,4,4a,5,6,6a,6b,7,8,8a,9,10,11,12,12a,12b,13,14b-icosahydropicene-4-carboxylic acid [UA-O-c]
3.22 ± 0.78 | (1S,2R,4R,6aS,6bR,12aR)-11-((Z)-3-chlorobenzylidene)-1,2,6a,6b,9,9,12a-heptamethyl-10-oxo-1,2,3,4,4a,5,6,6a,6b,7,8,8a,9,10,11,12,12a,12b,13,14b-icosahydropicene-4-carboxylic acid [UA-O-e]
1.49 ± 0.14 | (1S,2R,4R,6aS,6bR,12aR)-1,2,6a,6b,9,9,12a-heptamethyl-11-((Z)-4-nitrobenzylidene)-10-oxo-1,2,3,4,4a,5,6,6a,6b,7,8,8a,9,10,11,12,12a,12b,13,14b-icosahydropicene-4-carboxylic acid [UA-O-d]
4.87 ± 0.41 | (1S,2R,4R,6aS,6bR,12aR,Z)-1,2,6a,6b,9,9,12a-heptamethyl-10-oxo-11-((6-(trifluoromethyl) pyridin-3-yl) methylene)-1,2,3,4,4a,5,6,6a,6b,7,8,8a,9,10,11,12,12a,12b,13,14b-icosahydropicene-4-carboxylic acid [UA-O-f]

target: T1, α-glucosidase from baker's yeast; test: not given; design: method as in PMID 26406581; conditions: UA hydroxyl group oxidized into ketone; cited from earlier work

Compound | IC50 [µM]
C[C@@H]1CC[C@]2(C(=O)O)CC[C@]3(C)C(=CCC4[C@@]5(C)CCC(=O)C(C)(C)C5CC[C@]43C)C2[C@H]1C (stereo partly drawn) [UA-O] | 2.47 ± 0.14
